Measured values taken from patent US12208080B2, “Compositions and methods for modulation of extracellular vesicle release and treatment of neurological disorders” (GEORGE MASON RESEARCH FOUNDATION, INC., priority 2018, dated 2025).

What was measured:
[1] = tested on: HIV-1 infected monocytes (U1); assay: ZetaView nanoparticle tracking analysis of EVs released from HIV-1 infected U1 monocytes; format: cell-based; details: 5 days; for EV diameter (mean, median, peak): 1, 5, 10 μM or μg/mL, FIG. 8B-D; for release of EVs (EV concentration) / size of the EV (mean size): 1, 5, 20, 50 μM; for release of EVs (EV concentration): FIG. 2A; for size of the EV (mean size): FIG. 2B
Protocol: HIV-1 infected monocytes (U1) were treated with cannabidiol (“CBD”) (1, 5, 20, and 50 μM) or with tetrahydrocannabinol (“THC”) (1, 5, 20, and 50 μM) for 5 days. The supernatants from the treated cells were analyzed by Zeta View Nanoparticle Tracking analysis for changes in concentration. Student's t-test was used to determine significance (***=p<0.001, **=p<0.01, *=p<0.05).
HIV-1 infected monocytes (U1) were treated with cannabidiol (“CBD”) (1, 5, 20, and 50 μM) or with tetrahydrocannabinol (“THC”) (1, 5, 20, and 50 μM) for 5 days. The supernatants from the treated cells were analyzed by Zeta View Nanoparticle Tracking analysis for changes in mean size. Student's t-test was used to determine significance (***=p<0.001, **=p<0.01, *=p<0.05).
FIGS. 8A-8D are graphs showing Cannabis components lower EVs released from HIV-1 infected monocytes. HIV-1 infected U1 monocytic cells (1×10^6) were treated with a titration of CBD (1, 5, and 10 μM) and THC (1, 5, and 10 μg/mL) every day for 5 days. Cells were pelleted and supernatant was used for Zetaview NTA analysis to determine (A) EV concentration, (B) median size, (C) mean size, and (D) peak size. Each bar represents an average of three independent replicates. Student's t-test was used for statistical analysis, where *p-value≤0.05; **p-value≤0.01, ***p-value≤0.001.
HIV-1 infected monocytes (U1) were treated with a titration of CBD (1, 5, 20, and 50 μM) or a titration of THC (1, 5, 20, and 50 μM) for 5 days. Resulting supernatants from the treated cells were analyzed by Zeta View Nanoparticle Tracking analysis for changes in concentration (FIG. 2A) or mean size (FIG. 2B).
NTA was performed with the ZetaView Z-NTA (Particle Metrix) and its software (ZetaView 8.04.02). The machine was calibrated according to manufacturer's protocol. Following the measurement and removal of any outliers from the measured 11 positions, the mean size (diameter; nm) and the concentration of the sample (EV number) were analyzed by the associated ZetaView software. Measurement data from the ZetaView were used to calculate averages and standard deviations from technical triplicates using Microsoft Excel 2016.
Supernatants were harvested and analyzed using ZetaView NTA.
To verify that the observed decrease in EVs was not the result of modifications in packaging of various cargos into larger EVs, the mean diameter size (FIG. 8B), median diameter size (FIG. 8C), and peak diameter size (FIG. 8D) were also analyzed.

[2] = tested on: autophagy proteins (p62 and LC3) in U1 cells; assay: Autophagy proteins over time in U1 cells and their EVs (Western blot); format: cell-based
Protocol: FIGS. 18A-18B are gels showing CBD promotes autophagy turnover, resulting in a decrease in extracellular autophagosomal secretion. A) U1 cells (1×10^6) were treated±CBD (10 μM) for the following incubation periods: 0, 6, 24, and 48 hours. Cells were pelleted and lysed, exosomes from supernatants were enriched with NT80/82 beads overnight at 4° C. Samples were run through SDS-PAGE and western blotted for autophagy proteins (p62 and LC3), and Actin. B) U1 cells (1×10^6) were treated±10 μM CBD (every day), Rapamycin (50 nM), INK128 (50 nM), Bafilomycin A1 (50 nM), SB 203580 (20 μM), Wortmannin (2 nM) for a 5-day incubation period. Cells were pelleted and lysed, exosomes from supernatants were enriched using NT80/82 beads overnight at 4° C. Samples were run through SDS-PAGE and western blotted for autophagy proteins (p62, LC3, ATG12-ATG5, ATG12, Beclin-1), and Actin.
FIGS. 19A-19E are graphs showing normalized densitometry analysis of CBD treatment of HIV-1 infected monocytes over time and autophagy. Intracellular (A) p62, (B) LC3 I, and (C) LC3 II levels, and extracellular (D) p62, and (E) LC3 I levels were counted on the Western blot data from FIG. 5A through densitometry analysis, followed by normalization to Actin levels.
We have previously described a complex relationship between the intracellular autophagy pathway, secretory autophagy pathway, and EVs, where regulation of the autophagy pathway in infected cells can result in the blocking of viral protein degradation and, in turn, the export of viral products through EVs. Based on this, we next asked whether CBD had any effect on EV release by examining the secretory autophagy pathway. In order to evaluate the levels of intracellular autophagy proteins in HIV-1 infected cells, U1 cells were treated with CBD (10 μM) for 0, 6, 24, and 48 hours, followed by Western blot analysis for autophagosomal markers, p62 and LC3 I/II (FIG. 18A). […] In order to examine any alterations that CBD might have on secretory autophagy in HIV-1 infected monocytes, EVs were enriched from the supernatants using NT80/82 and analyzed by Western blot for changes in secreted autophagosome proteins. […] This is in line with numerous studies which have shown the HIV-1 viral proteins Tat and Nef to be involved in autophagy deregulation in infected cells.

| SMILES | decrease in EVs compared to untreated control ([1]; 1 μM, FIG. 8A lane 2) | decrease in EVs compared to untreated control ([1]; 5 μM, FIG. 8A lane 3) | decrease in EVs compared to untreated control ([1]; 10 μM, FIG. 8A lane 4) | EV diameter (mean, median, peak) [1] | release of EVs (EV concentration) [1] | size of the EV (mean size) [1] | LC3 I in secreted EVs ([2]; 10 μM, 6, 24, 48 hours vs untreated) | intracellular LC3 II ([2]; 10 μM, 6- and 24-hour vs controls) | extracellular (EV) p62 ([2]; 10 μM, from the 6-hour time point onwards vs untreated) | intracellular p62 ([2]; 10 μM, starting at 24-hour, peaking at 48-hour, FIG. 18A) | intracellular LC3 I ([2]; 10 μM, up to 24 hours vs untreated) | number of EVs released ([1]; 1, 5, 10 μg/mL, FIG. 8A lanes 5-7, less drastic than CBD) |
| --- | --- | --- | --- | --- | --- | --- | --- | --- | --- | --- | --- | --- |
| C=C(C)[C@@H]1CCC(C)=C[C@H]1c1c(O)cc(CCCCC)cc1O [CBD, 2-[1R-3-methyl-6R-(1-methylethenyl)-2-cyclohexen-1-yl]-5-pentyl-1,3-benzenediol] | 44% | 76% | 79% | little to no change in diameter | significantly reduced the release of EVs | without altering the size of the EV | overall lower level of LC3 I | higher levels of LC3 II | lower p62 levels | time dependent decrease | decrease in LC3 I levels | – |
| CCCCCc1cc(O)c2c(c1)OC(C)(C)[C@@H]1CCC(C)=C[C@@H]21 [THC, Δ9-tetrahydrocannabinol] | – | – | – | little to no change in diameter | significantly reduced the release of EVs | without altering the size of the EV | – | – | – | – | – | significant reduction in the number of EVs |
